Assay results as given in US10597388B2, “Pyridazinone herbicides” (FMC CORPORATION, priority 2014, dated 2020).

Legend:
Assay type in all cases: in vivo
[1] = system: lambsquarters (Chenopodium album); assay: Test C greenhouse herbicide test, pre- and postemergence
Method in brief: (§1)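 Greenhouse pots; pre-em on seeded loam:sand blend, post-em on 2–18 cm plants (1–4 leaf) in sphagnum peat/vermiculite medium. Formulation: non-phytotoxic solvent + surfactant. Read-out: visual % control (0–100) vs controls at 13–15 d.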

soybean (Glycine max) = assay: as above
Method in brief: as §1

[2] = system: blackgrass (Alopecurus myosuroides); assay: as above
Method in brief: as §1

[3] = system: ragweed (common ragweed, Ambrosia elatior); assay: as above
Method in brief: as §1

[4] = system: waterhemp (common waterhemp, Amaranthus rudis); assay: as above
Method in brief: as §1

[5] = system: foxtail, giant (giant foxtail, Setaria faberii); assay: as above
Method in brief: as §1

[6] = system: morningglory (Ipomoea coccinea); assay: as above
Method in brief: as §1

[7] = system: crabgrass, large (large crabgrass, Digitaria sanguinalis); assay: as above
Method in brief: as §1

[8] = system: johnsongrass (Sorghum halepense); assay: as above
Method in brief: as §1

[9] = system: nutsedge, yellow (yellow nutsedge, Cyperus esculentus); assay: as above
Method in brief: as §1

[10] = system: ryegrass, Italian (Italian ryegrass, Lolium multiflorum); assay: as above
Method in brief: as §1

[11] = system: pigweed (Amaranthus retroflexus); assay: as above
Method in brief: as §1

[12] = system: wheat (winter wheat, Triticum aestivum); assay: as above
Method in brief: as §1

corn (Zea mays) = assay: as above
Method in brief: as §1

[13] = system: oilseed rape (Brassica napus); assay: as above
Method in brief: as §1

kochia (Kochia scoparia) = assay: Test C greenhouse herbicide test, postemergence; settings: Postemergence
Method in brief: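 Steps: pot plants in peat-based medium; spray postemergence at 1- to 4-leaf stage; hold in greenhouse 13 to 15 d; score visually against controls from 0 (no effect) to 100 (complete control).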

[14] = Postemergence, 31 g ai/ha, scale 0 to 100 (0 no effect, 100 complete control)
[15] = Postemergence, 125 g ai/ha, scale 0 to 100, 0 is no effect, 100 is complete control
[16] = Postemergence, 250 g ai/ha, scale 0 to 100, 0 no effect, 100 complete control, 13 to 15 d
[17] = Preemergence, 31 g ai/ha, scale 0 to 100, 0 is no effect, 100 is complete control
[18] = Preemergence, 62 g ai/ha, scale 0 to 100, 0 is no effect, 100 is complete control
[19] = Preemergence, 125 g ai/ha, scale 0 to 100, 0 is no effect, 100 is complete control
[20] = Preemergence, 250 g ai/ha, scale 0 to 100 (0 no effect, 100 complete control)
[21] = postemergence, 62 g ai/ha, scale 0 to 100, 0 no effect, 100 complete control

CCC(=O)Oc1c(C)nn(C)c(=O)c1-c1c(C)sc2ccc(Cl)cc12 [Compound 109]
Plant response rating, Lambsquarters [1, 14]: 95
Plant response rating, Lambsquarters [1, 15]: 100
Plant response rating, Lambsquarters [1, 16]: 100
Plant response rating, Lambsquarters [1, 17]: 80
Plant response rating, Lambsquarters [1, 18]: 90
Plant response rating, Lambsquarters [1, 19]: 90
Lambsquarters plant response rating [1, 20]: 100
Plant response rating, Soybean (soybean (Glycine max); [14]): 0
Plant response rating, Soybean (soybean (Glycine max); [15]): 30
Plant response rating, Soybean (soybean (Glycine max); [16]): 25
Plant response rating, Soybean (soybean (Glycine max); [17]): 0
Plant response rating, Soybean (soybean (Glycine max); [18]): 0
Plant response rating, Soybean (soybean (Glycine max); [19]): 0
Soybean plant response rating (soybean (Glycine max); [20]): 0
Plant response rating, Blackgrass [2, 14]: 20
Plant response rating, Blackgrass [2, 15]: 50
Plant response rating, Blackgrass [2, 16]: 80
Plant response rating, Blackgrass [2, 17]: 35
Plant response rating, Blackgrass [2, 18]: 30
Plant response rating, Blackgrass [2, 19]: 85
Blackgrass plant response rating [2, 20]: 90
Blackgrass plant response rating [2, 21]: 25
Plant response rating, Ragweed [3, 14]: 80
Plant response rating, Ragweed [3, 15]: 100
Plant response rating, Ragweed [3, 16]: 100
Plant response rating, Ragweed [3, 17]: 95
Plant response rating, Ragweed [3, 18]: 90
Plant response rating, Ragweed [3, 19]: 95
Ragweed plant response rating [3, 20]: 100
Plant response rating, Waterhemp [4, 14]: 80
Plant response rating, Waterhemp [4, 15]: 90
Plant response rating, Waterhemp [4, 16]: 100
Plant response rating, Waterhemp [4, 17]: 80
Plant response rating, Waterhemp [4, 18]: 90
Plant response rating, Waterhemp [4, 19]: 100
Waterhemp plant response rating [4, 20]: 100
Plant response rating, Foxtail, Giant [5, 14]: 45
Plant response rating, Foxtail, Giant [5, 15]: 80
Plant response rating, Foxtail, Giant [5, 16]: 85
Plant response rating, Foxtail, Giant [5, 17]: 65
Plant response rating, Foxtail, Giant [5, 18]: 85
Plant response rating, Foxtail, Giant [5, 19]: 85
Foxtail, Giant plant response rating [5, 20]: 90
Plant response rating, Morningglory [6, 14]: 95
Plant response rating, Morningglory [6, 15]: 100
Plant response rating, Morningglory [6, 16]: 100
Plant response rating, Morningglory [6, 17]: 85
Plant response rating, Morningglory [6, 18]: 85
Plant response rating, Morningglory [6, 19]: 90
Morningglory plant response rating [6, 20]: 98
Plant response rating, Crabgrass, Large [7, 14]: 35
Plant response rating, Crabgrass, Large [7, 15]: 60
Plant response rating, Crabgrass, Large [7, 16]: 60
Plant response rating, Crabgrass, Large [7, 17]: 40
Plant response rating, Crabgrass, Large [7, 18]: 65
Plant response rating, Crabgrass, Large [7, 19]: 70
Crabgrass, Large plant response rating [7, 20]: 80
Crabgrass, Large plant response rating [7, 21]: 40
Plant response rating, Johnsongrass [8, 14]: 0
Plant response rating, Johnsongrass [8, 15]: 5
Plant response rating, Johnsongrass [8, 16]: 5
Plant response rating, Johnsongrass [8, 17]: 0
Plant response rating, Johnsongrass [8, 18]: 30
Plant response rating, Johnsongrass [8, 19]: 40
Johnsongrass plant response rating [8, 20]: 65
Plant response rating, Nutsedge, Yellow [9, 14]: 45
Plant response rating, Nutsedge, Yellow [9, 15]: 80
Plant response rating, Nutsedge, Yellow [9, 16]: 80
Plant response rating, Nutsedge, Yellow [9, 17]: 40
Plant response rating, Nutsedge, Yellow [9, 18]: 70
Plant response rating, Nutsedge, Yellow [9, 19]: 90
Nutsedge, Yellow plant response rating [9, 20]: 80
Plant response rating, Ryegrass, Italian [10, 14]: 90
Plant response rating, Ryegrass, Italian [10, 15]: 90
Plant response rating, Ryegrass, Italian [10, 16]: 90
Plant response rating, Ryegrass, Italian [10, 17]: 70
Plant response rating, Ryegrass, Italian [10, 18]: 90
Plant response rating, Ryegrass, Italian [10, 19]: 90
Ryegrass, Italian plant response rating [10, 20]: 95
Plant response rating, Pigweed [11, 14]: 95
Plant response rating, Pigweed [11, 15]: 100
Plant response rating, Pigweed [11, 16]: 100
Plant response rating, Pigweed [11, 17]: 100
Plant response rating, Pigweed [11, 18]: 100
Plant response rating, Pigweed [11, 19]: 100
Pigweed plant response rating [11, 20]: 100
Plant response rating, Wheat [12, 14]: 0
Plant response rating, Wheat [12, 15]: 10
Plant response rating, Wheat [12, 16]: 35
Plant response rating, Wheat [12, 17]: 0
Plant response rating, Wheat [12, 18]: 10
Plant response rating, Wheat [12, 19]: 10
Wheat plant response rating [12, 20]: 15
Plant response rating, Corn (corn (Zea mays); [14]): 0
Plant response rating, Corn (corn (Zea mays); [15]): 35
Plant response rating, Corn (corn (Zea mays); [16]): 50
Plant response rating, Corn (corn (Zea mays); [17]): 5
Plant response rating, Corn (corn (Zea mays); [18]): 0
Plant response rating, Corn (corn (Zea mays); [19]): 0
Corn plant response rating (corn (Zea mays); [20]): 0
Corn plant response rating (corn (Zea mays); [21]): 15
Plant response rating, Oilseed Rape [13, 14]: 70
Plant response rating, Oilseed Rape [13, 15]: 95
Plant response rating, Oilseed Rape [13, 16]: 95
Plant response rating, Oilseed Rape [13, 17]: 5
Plant response rating, Oilseed Rape [13, 18]: 85
Plant response rating, Oilseed Rape [13, 19]: 85
Oilseed Rape plant response rating [13, 20]: 90
Plant response rating, Kochia (kochia (Kochia scoparia); 31 g ai/ha, scale 0 to 100 (0 no effect, 100 complete control)): 95
Plant response rating, Kochia (kochia (Kochia scoparia); 125 g ai/ha, scale 0 to 100, 0 is no effect, 100 is complete control): 100
Plant response rating, Kochia (kochia (Kochia scoparia); 250 g ai/ha, scale 0 to 100, 0 no effect, 100 complete control, 13 to 15 d): 100
